The TGI is the concentration at which net growth stops. Low values mean more potent growth arrest, high ones less potent growth arrest. What is called GI50 is the concentration at which growth is held to half of that of the control.

The structures appear in SMILES notation.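 Briefly, cells in 96-well plates were exposed to five compound concentrations for 48 h, and endpoints were estimated by linear interpolation. GI50 = concentration required for 50% inhibition of growth. TGI: concentration producing complete growth inhibition.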

Our source for the TGI and GI50 values is PubChem BioAssay (NCI).

Among the test systems are 786-0 renal; BT-549 breast; HOP-92 NSCLC; MDA-MB-435; NCI-H460 lung; SF-268 CNS; SK-MEL-28 melanoma; SN12C renal; SW-620 colon; TK-10 renal.
Common to all, as to experiment: DTP human tumour cell line panel, 48 h

Turning to `CC(=O)Oc1ccc2ccc(=O)oc2c1OC(C)=O`, the total growth inhibition concentration (TGI) in the test on 786-0 renal, in the test on BT-549 breast, in the test on HOP-92 NSCLC, in the test with MDA-MB-435, with NCI-H460 lung and in the test with SF-268 CNS was greater than 100 µM in each case. Also, the TGI with SK-MEL-28 melanoma, in the test on SN12C renal, with SW-620 colon and in the test with TK-10 renal was greater than 100 µM throughout.

Take `CCOC(=O)c1ccc2c(c1)[n+](=O)c(C(=O)c1ccc3ccccc3c1)c(C(F)(F)F)n2[O-]`: the GI50 in the test on 786-0 renal is 1.61 µM; with BT-549 breast, 1.53 µM; in the test on HOP-92 NSCLC it was 1.2 µM; in the test with MDA-MB-435, 1.53 µM; with NCI-H460 lung, 1.69 µM; with SF-268 CNS, 1.15 µM. Moreover, the GI50 in the test on SK-MEL-28 melanoma is 1.66 µM; in the test with SN12C renal, 1.63 µM; in the test with SW-620 colon, 1.52 µM; in the test with TK-10 renal, 1.89 µM. For the same molecule, the TGI stood at 2.99 µM in the test with 786-0 renal; 3.28 µM with BT-549 breast; 2.52 µM in the test on HOP-92 NSCLC; 2.95 µM in the test with MDA-MB-435; 3.2 µM in the test on NCI-H460 lung; 2.36 µM in the test with SF-268 CNS. Also, the TGI is 3.02 µM in the test with SK-MEL-28 melanoma, 3.58 µM with SN12C renal, 2.92 µM with SW-620 colon and 3.3 µM in the test with TK-10 renal.

Consider `CCOc1cc(C=O)c2c(ccc3ccc(OC)c(OC)c32)c1OC`, for which the TGI with 786-0 renal, in the test on BT-549 breast, in the test on HOP-92 NSCLC, with MDA-MB-435, in the test with NCI-H460 lung and in the test with SF-268 CNS was greater than 100 µM each time. Moreover, the TGI with SK-MEL-28 melanoma, in the test with SN12C renal and with TK-10 renal was greater than 100 µM each time.

`CCc1ccc(CCC(=O)Nc2ncc(Cc3cc(Cl)ccc3Cl)s2)o1`: the GI50 in the test on 786-0 renal is 2.7 µM; in the test on BT-549 breast, greater than 50 µM; in the test on HOP-92 NSCLC it was 2.08 µM; in the test with MDA-MB-435, 0.15 µM; in the test with NCI-H460 lung, 1.88 µM; in the test with SF-268 CNS it was 3.6 µM. Also, the GI50 in the test with SK-MEL-28 melanoma was 2.75 µM; in the test on SN12C renal, 1.93 µM; in the test on SW-620 colon, 0.935 µM; in the test with TK-10 renal, 3.47 µM. In addition, the TGI with 786-0 renal is greater than 50 µM; in the test on BT-549 breast it was greater than 50 µM; with HOP-92 NSCLC, greater than 50 µM; in the test on MDA-MB-435 it was 0.486 µM; with NCI-H460 lung, greater than 50 µM; in the test with SF-268 CNS it was greater than 50 µM. Besides, the TGI in the test on SK-MEL-28 melanoma is greater than 50 µM; in the test on SN12C renal, 36.9 µM; in the test on SW-620 colon, greater than 50 µM; with TK-10 renal, greater than 50 µM.

With `CCOC(=O)C1=C(N)Oc2c(sc3c(C)cccc23)C1c1ccc(Cl)cc1` (stereo not drawn), the GI50 in the test on 786-0 renal is 4.05 µM; with BT-549 breast, 3.3 µM; with HOP-92 NSCLC, 3.83 µM; with MDA-MB-435 it was 0.447 µM; in the test with NCI-H460 lung, 3.29 µM; in the test on SF-268 CNS it was 6.13 µM. For the same molecule, the GI50 was 10.3 µM in the test on SK-MEL-28 melanoma, 3.97 µM with SN12C renal, 3.64 µM in the test with SW-620 colon and 12.6 µM with TK-10 renal. The TGI in the test with 786-0 renal amounted to 16.8 µM; in the test on BT-549 breast, 15.8 µM; in the test with HOP-92 NSCLC, 20.7 µM; in the test with MDA-MB-435, 2.59 µM; with NCI-H460 lung, 11.6 µM; in the test with SF-268 CNS it was 22.4 µM. Besides, the TGI with SK-MEL-28 melanoma was 23.6 µM; in the test on SN12C renal, 16.1 µM; in the test with SW-620 colon it was 16.8 µM; with TK-10 renal, 29.1 µM.

Consider `CC1(C)CC[C@]2(C(=O)n3ccnc3)CC[C@]3(C)[C@H](C(=O)C=C4[C@@]5(C)C=C(C#N)C(=O)C(C)(C)[C@@H]5CC[C@]43C)[C@@H]2C1`, for which the GI50 was less than 0.01 µM with 786-0 renal; less than 0.0328 µM in the test on BT-549 breast; 0.0221 µM in the test on HOP-92 NSCLC; less than 0.0148 µM in the test with MDA-MB-435; less than 0.0179 µM in the test with NCI-H460 lung; 0.0164 µM in the test on SF-268 CNS. The concentration for 50% growth inhibition (GI50) with SK-MEL-28 melanoma was less than 0.0155 µM; with SN12C renal, less than 0.0177 µM; in the test with TK-10 renal it was less than 0.0132 µM. Also, the TGI in the test on 786-0 renal is 0.0199 µM; in the test on BT-549 breast, 0.126 µM; with HOP-92 NSCLC it was 0.102 µM; in the test on MDA-MB-435, 0.0373 µM; in the test on NCI-H460 lung it was greater than 100 µM; in the test on SF-268 CNS, greater than 100 µM. The total growth inhibition concentration (TGI) is 0.0848 µM in the test with SK-MEL-28 melanoma, 0.0404 µM in the test with SN12C renal and less than 0.0226 µM with TK-10 renal.

As for `COC1OCC(OS(=O)(=O)c2ccc(C)cc2)C(OC(=O)c2ccccc2)C1OC(=O)c1ccccc1` (stereo not drawn), the GI50 was 5.13 µM with 786-0 renal; greater than 100 µM in the test with BT-549 breast; 2.48 µM in the test with HOP-92 NSCLC; 0.662 µM with MDA-MB-435; 3.87 µM with NCI-H460 lung; 9.75 µM in the test on SF-268 CNS. The GI50 is 4.62 µM in the test with SK-MEL-28 melanoma, 3.08 µM in the test on SW-620 colon and greater than 100 µM in the test on TK-10 renal. Further, the TGI in the test with 786-0 renal was greater than 100 µM; in the test on BT-549 breast it was greater than 100 µM; with HOP-92 NSCLC, greater than 100 µM; with MDA-MB-435 it was 3.94 µM; in the test on NCI-H460 lung it was greater than 100 µM; with SF-268 CNS, greater than 100 µM. For the same molecule, the TGI in the test on SK-MEL-28 melanoma, with SW-620 colon and in the test on TK-10 renal was greater than 100 µM each time.

As for `COc1ccc(S(=O)(=O)N2CCN(C(=O)OCc3ccccc3)CC2C(=O)NO)cc1` (stereo not drawn), the GI50 in the test with 786-0 renal is greater than 25 µM; with BT-549 breast it was greater than 25 µM; in the test on MDA-MB-435, 13.4 µM; with NCI-H460 lung it was greater than 25 µM; in the test on SF-268 CNS, greater than 25 µM; in the test with SK-MEL-28 melanoma it was greater than 25 µM. The GI50 is greater than 25 µM in the test with SN12C renal, greater than 25 µM with SW-620 colon and 10.9 µM with TK-10 renal. The total growth inhibition concentration (TGI) with 786-0 renal, in the test with BT-549 breast, in the test on MDA-MB-435, in the test on NCI-H460 lung, in the test with SF-268 CNS and in the test with SK-MEL-28 melanoma was greater than 25 µM in each case. Further, the TGI in the test on SN12C renal, in the test on SW-620 colon and in the test with TK-10 renal was greater than 25 µM each time.
